The record followed here is US11129840B2, “Methods for identifying novel dosing regimens” (Zavante Therapeutics, Inc., priority 2017, dated 2021).

One test deals with ESBL-producing K. pneumoniae isolate. Put plainly: Time-kill kinetic analysis. In kind it is cell-based, Klebsiella pneumoniae. The note with it: CAZ ¼ and 1×MIC, by 4-8 h. How it is done:
Broth microdilution for FOS (Mueller-Hinton broth supplemented with 25 μg/mL glucose-6-phosphate) and comparators was performed before performing TKK. TKK employed MIC multiples for FOS, and ¼ and 1×MIC of select comparators, and combinations of FOS and comparator. TKK were sampled for colony counts at T0, T2, T4, T8 and T24 hours (h). Two Klebsiella pneumoniae isolates (one KPC and one ESBL), two Pseudomonas aeruginosa isolates (non-MDR), and one Acinetobacter baumannii isolate (MDR) were tested.
In the case of `CC(C)(O/N=C(\C(=O)N[C@@H]1C(=O)N2C(C(=O)[O-])=C(C[n+]3ccccc3)CS[C@H]12)c1csc(N)n1)C(=O)O` [CAZ, ceftazidime], the “decrease in CFU” value is 0.9-2.1 log10 CFU.

The subject of another test is Carbapenem-resistant Enterobacteriaceae (CRE) clinical isolates. Put plainly: Susceptibility testing, CRE clinical isolates. The format is cell-based. The conditions noted are these: 50 isolates.
`CC(C)(O/N=C(\C(=O)N[C@@H]1C(=O)N2C(C(=O)[O-])=C(C[n+]3ccccc3)CS[C@H]12)c1csc(N)n1)C(=O)O` [CAZ, ceftazidime] came in with a Non-susceptiblity rate of 92%.

Take `C[C@@H](O)[C@H]1C(=O)N2C(C(=O)O)=C(SCCN=CN)C[C@H]12` [IMP, Imipenem]: the Non-susceptiblity rate came out at 86%.

`C[C@@H](O)[C@H]1C(=O)N2C(C(=O)O)=C(S[C@@H]3CN[C@H](C(=O)N(C)C)C3)[C@H](C)[C@H]12` [MEM, Meropenem] displayed a Non-susceptiblity rate of 82%.

In turn, Gentamicin came in with a Non-susceptiblity rate of 54%.

Consider Piperacillin-tazobactam [PTZ], for which the Non-susceptiblity rate amounted to 96%.

Consider ceftazidime-avibactam [C-A], for which the Non-susceptiblity rate came to 6%.

Compound ceftolozane-tazobactam [C-T] yielded a Non-susceptiblity rate of 43%.

Another test has as its system Pa isolates. The experiment in a line: Time kill assays against 12 isolates. The format is cell-based, Pseudomonas aeruginosa. The note with it: tested alone, FOS-S isolates; >3-log10 reduction at 12 and/or 24 hours. The procedure:
Forty-three Pa isolates (recovered from unique patients) were selected for testing. […] Interactions between FOS and other agents were determined by double disc testing on Mueller Hinton agar. Discs containing 300 μg FOS and 50 G6P were used, along with commercially available Kirby Bauer discs for other agents. Intravenous FOS MIC breakpoints are not established. […] Time kill assays against 12 isolates were performed for FOS, CAZ-AVI, CFT-TAZ and PIP-TAZ (alone, and each agent in combination with FOS) at the respective MIC (or breakpoint MIC for resistant isolates). Bactericidal activity during time-kills was defined as >3-log10 reduction at 12 and/or 24 hours, compared to starting inoculum. Synergy during time-kills was defined as >2-log10 reduction at 12 and/or 24 hours, compared to best single agent alone.
On to Piperacillin-tazobactam [PTZ], for which the “% of isolates with bactericidal activity” value is on record as 8%.

Regarding ceftazidime-avibactam [C-A], the “% of isolates with bactericidal activity” value is recorded as 8%.

Consider ceftolozane-tazobactam [C-T], for which the “% of isolates with bactericidal activity” value came out at 8%.
